{
  "source": "patent US20150150897A1",
  "about": "“METHODS OF TREATING HEPATITIS C VIRUS INFECTION IN SUBJECTS WITH CIRRHOSIS” (priority 2013, published 2015)",
  "key": {"[1]": {"experiment": "Clinical trials of Compound 1: resistance and tolerability", "assay_type": "in vivo, human", "from_the_text": "Compound 1, is also known as “sofosbuvir” or “SOF”."}, "[2]": {"settings": "healthy volunteers, cited from earlier work"}},
  "data": [
    {"smiles": "CC(C)OC(=O)[C@H](C)N[P@](=O)(OC[C@H]1O[C@@H](n2ccc(=O)[nH]c2=O)[C@](C)(F)[C@@H]1O)Oc1ccccc1", "note": "[Compound 1, (S)-isopropyl2-(((S)-(((2R,3R,4R,5R)-5-(2,4-dioxo-3,4-dihydrophyrimidin-1(2H)-yl)-4-fluoro-3-hydroxy-4-methyltetrahydrofuran-2-yl)methoxy)(phenoxy)phosphoryl)amino)propanoate]", "values": [
      {"measurement": "tolerability", "setting": "[1]", "value": "well-tolerated"},
      {"measurement": "increases in Compound 1 exposure from co-administration", "setting": "[2]; co-administration with GS-5885, GS-9669, and GS-5885+GS-9669", "value": "not clinically significant"}
    ]},
    {"smiles": "COC(=O)N[C@H](C(=O)N1CC2(CC2)C[C@H]1c1ncc(-c2ccc3c(c2)C(F)(F)c2cc(-c4ccc5nc([C@@H]6[C@H]7CC[C@H](C7)N6C(=O)[C@@H](NC(=O)OC)C(C)C)[nH]c5c4)ccc2-3)[nH]1)C(C)C", "note": "[GS-5885]", "values": [
      {"measurement": "exposure on concurrent administration of Compound 1", "setting": "[2]", "value": "unaffected"}
    ]},
    {"smiles": "COC[C@H]1C[C@@H](c2ncc(-c3ccc4c(c3)COc3cc5c(ccc6nc([C@@H]7CC[C@H](C)N7C(=O)[C@@H](NC(=O)OC)C(C)C)[nH]c65)cc3-4)[nH]2)N(C(=O)[C@H](NC(=O)OC)c2ccccc2)C1", "note": "[GS-9669]", "values": [
      {"measurement": "exposure on concurrent administration of Compound 1", "setting": "[2]", "value": "unaffected"}
    ]}
  ]
}
